Results taken from EP0107208A1, “1,1,2-Triphenyl-but-1-ene derivatives, process for their preparation and their use as medicines” (Klinge Pharma GmbH, priority 1982, dated 1984).
“And” between values parts separate entries of the source, which are not always exact repeats. Equal values may be shown once. Read-outs that look alike come from different tables or passages of the source.

Tests used:
ZR-75-1-Zellen [1] = experiment: Inhibition of RNA synthesis in isolated human mammary tumour cells (incorporation of labelled uridine); format: cell-based; details: for inhibition at 1 µM / inhibition at 4 µM / inhibition at 0.1 µM: Homo sapiens, ZR-75-1, 48 h; for Prozentuale Hemmung der RNS-Synthese: 2880 min
Text: […] positive [ER +] Mammatumor-Zellen aus Patienten zu isolieren und in vitro kontinuierlich zu […] sog. […] in vivo beobachteten morphologischen […] und […] somit […] zur Testung von Antiestrogenen dar,da direkte Aussagen über den Einfluß auf den in vivo zu […]. […] Der Einfluß der beanspruchten Verbindunger. auf das Wachstum dieser Zellen wurde über den Einbau von […] bzw. Thymidin nach der Methode von Lippman, M. et al kontrolliert. […] Thymidin versetzt und nach einer Stunde die Einbaurate des markierten Materials in den Zellen bestimmt.

ZR-75-1-Zellen [2] = experiment: Inhibition of RNA synthesis in ZR-75-1 cells in the presence of 17-β-estradiol; format: cell-based; details: Homo sapiens, compound 1 x 10^-6 [M] + 17-β-Estradiol 1 x 10^-8 [M], 48 h incubation, read-out: Prozentuale Hemmung der RNS-Synthese
Text: Zur […] vivo wurde die Potenz der antiestrogenen Wirkung der beanspruchten Verbindungen in Gegenwart eines Estrogens geprüft. […] Thymidin hinzugefügt und nach einer Stunde die Einbaurate des markierten Materials in gen Zellen bestimmt.[Tab.4]

Estradiolrezeptor = target: T1, Estradiolrezeptor (Oryctolagus cuniculus, UniProt G1SML6); experiment: Binding affinity to the estradiol receptor: displacement of [3H]-estradiol in rabbit uterus cytosol; set-up: species or system Kaninchen (Neuseeländer); details: molar concentration displacing 50% [3H]-Estradiol from the receptor, 18 h at 4° C, 2.5 ×10^-9 M [3H]-Estradiol, read-out: ED50% (the source's name)
T1 construct: Das Uteruscytosol von weiblichen, präpubertären, weißen 2 kg schweren Kaninchen (Neuseeländer); from tissue; host or cells: uterus cytosol of female prepubertal New Zealand white rabbits
T1 sequence (G1SML6 1-598): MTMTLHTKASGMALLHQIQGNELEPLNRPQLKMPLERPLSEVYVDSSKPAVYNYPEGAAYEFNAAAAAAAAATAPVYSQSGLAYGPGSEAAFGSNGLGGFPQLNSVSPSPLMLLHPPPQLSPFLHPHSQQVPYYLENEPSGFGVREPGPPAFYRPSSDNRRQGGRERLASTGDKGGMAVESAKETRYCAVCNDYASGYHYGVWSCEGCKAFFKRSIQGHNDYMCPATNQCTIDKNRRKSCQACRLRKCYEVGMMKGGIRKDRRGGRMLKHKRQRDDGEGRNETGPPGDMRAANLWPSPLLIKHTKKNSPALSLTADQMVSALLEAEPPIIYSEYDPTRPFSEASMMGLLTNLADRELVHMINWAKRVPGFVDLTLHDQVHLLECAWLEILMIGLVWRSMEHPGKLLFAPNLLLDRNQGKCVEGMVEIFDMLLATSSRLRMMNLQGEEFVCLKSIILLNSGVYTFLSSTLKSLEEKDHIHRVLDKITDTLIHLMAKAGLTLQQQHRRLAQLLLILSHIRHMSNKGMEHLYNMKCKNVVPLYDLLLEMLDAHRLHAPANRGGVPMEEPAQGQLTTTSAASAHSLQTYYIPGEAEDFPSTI
Text: Die Messung der Eindungsaffinität zum Estradiolrezeptor erfolgte nach der Eethode von N. Devleeschouwer, G. Leclercq, A. Danguy und J. C. Heuson LEurop. J. Cancer, 14 ,721 - 723 (197o)].
Testsubstanz verschiedener Konzentration inkubiert.Die Bindungsaffinität zum Estradiolrezeptor wird ausgedrückt durch die aen. […] Testsubstanz, welche eine 5C-prcz.

[3] = read-out: Prozentuale Hemmung der RNS-Synthese

SMILES	inhibition at 1 µM (ZR-75-1-Zellen [1]; read-out: Prozentuale Hemmung der RNS-Synthese, substance concentration 1 x 10^-6[M], 48 h incubation, Tamoxifen run in each experiment) [%]	inhibition at 4 µM (ZR-75-1-Zellen [1]; read-out: Prozentuale Hemmung der RNS-Synthese, substance concentration 4 x 10^-6[M], 48 h incubation, Tamoxifen run in each experiment) [%]	Prozentuale Hemmung der RNS-Synthese (ZR-75-1-Zellen [1]; substance concentration 1 x 10^-6[M], 48 h incubation, Tamoxifen run in each experiment, 1 µM)	Prozentuale Hemmung der RNS-Synthese (ZR-75-1-Zellen [1]; substance concentration 1 x 10^-6[M], 48 h incubation, Tamoxifen run in each experiment, listed as Taxoxifen, 1 µM) [%]	Prozentuale Hemmung der RNS-Synthese (ZR-75-1-Zellen [1]; substance concentration 1 x 10^-7[M], 48 h incubation, Tamoxifen run in each experiment, 0.1 µM)	Prozentuale Hemmung der RNS-Synthese (ZR-75-1-Zellen [1]; substance concentration 1 x 10^-7[M], 48 h incubation, Tamoxifen run in each experiment, 0.1 µM, listed as Taxoxifen) [%]	Prozentuale Hemmung der RNS-Synthese (ZR-75-1-Zellen [1]; substance concentration 4 x 10^-6[M], 48 h incubation, Tamoxifen run in each experiment, 4 µM) [%]	Prozentuale Hemmung der RNS-Synthese (ZR-75-1-Zellen [1]; substance concentration 4 x 10^-6[M], 48 h incubation, Tamoxifen run in each experiment, listed as Taxoxifen, 4 µM) [%]	inhibition at 1 µM (ZR-75-1-Zellen [2]) [%]	inhibition at 0.1 µM (ZR-75-1-Zellen [1]; [3]) [%]	inhibition at 1 µM (ZR-75-1-Zellen [1]; [3]) [%]	inhibition at 4 µM (ZR-75-1-Zellen [1]; [3]) [%]	IC50 (Estradiolrezeptor) [nM]
CC/C(=C(\c1ccccc1)c1ccc(OCCN(C)C)cc1)c1ccccc1 [Tamoxifen, (Z)-1-[4'-(2-Dimetrylaminoethcxy)phenyl]-1,2-diphenyl-but-1-en, reference compound]	43	99	44% and 39% and 59%	46	29% and 16%	2	100	93					
CC/C(=C(/c1ccc(OCCN(C)C)cc1)c1cccc(O)c1)c1cccc(C)c1 [Verbindung 1, (E)-1-[4'-(2-Dimethylaminoethoxy)phenyl]-1-(3'-hydroxyphenyl)-2-(3'-methylphenyl)-but-1-en]									74	47	74	100	35
CC/C(=C(/c1ccc(OCCN(C)C)cc1)c1cccc(O)c1)c1ccc(C)cc1 [Verbindung 2]									58	42	62	100	73
CC/C(=C(/c1ccc(OCCN(C)C)cc1)c1cccc(O)c1)c1ccc(OC)cc1 [Verbindung 3, (E)-1-[4'-(2-Dimethylaminoethoxy)phenyl]-1-(3'-hydroxyphenyl)-2-(4'-methoxyphenyl)-but-1-en]									65	36	68	100	28
CC/C(=C(/c1ccc(OCCN(C)C)cc1)c1cccc(O)c1)c1cccc(O)c1 [Verbindung 4, (E)-1-[4'-(2-Dimethylaminoethoxy)phenyl]-1,2-bis-(3'-hydroxyphenyl)-but-1-en]									79	33	73	100	
CC/C(=C(/c1ccc(OCCN(C)C)cc1)c1cccc(O)c1)c1ccc(Cl)cc1 [Verbindung 5]										41	61	100	85
CC/C(=C(/c1ccc(OCCN(C)C)cc1)c1cccc(O)c1)c1ccc(Br)cc1 [Verbindung 6, (E)-2-(4'-Bromphenyl)-1-[4'-(2-dimethylaminoethoxy)phenyl]-1-(3'-hydroxyphenyl)-but-l-en]									74	47	70	100	
CC/C(=C(/c1ccc(OCCN(CC)CC)cc1)c1cccc(O)c1)c1ccc(OC)cc1 [Verbindung 7, (E)-1-[4'-(2-Diethylaminoethoxy)phenyl]-1-(3'-hydroxyphenyl)-2-(4'methoxyphenyl)-but-l-en]									41	4	37	91	
